Patent US11419335B2, “N-arylated analogues and uses thereof” (University of Florida Research Foundation, Incorporated, priority 2016, dated 2022)
Like-named read-outs stand apart in the source and are kept apart here. Marks after values point to notes of the source that are not given here.

How the values were obtained:
[1] = system: Acinetobacter baumannii (ATCC 1794); experiment: MIC broth microdilution, A. baumannii 1794; assay type: cell-based; details: for MIC A. baumannii 1794: Table 1A, in µM; for MIC A. bau. 1794: Table 4
Protocol: (§1) The minimum inhibitory concentration (MIC) for each tested compound was determined by the broth microdilution method as recommended by the Clinical and Laboratory Standards Institute (CLSI). In a 96-well plate, eleven two-fold serial dilutions of each compound were made in a final volume of 100 μL Luria Broth. Each well was inoculated with ˜10^5 bacterial cells at the initial time of incubation, prepared from a fresh log phase culture (OD600 of 0.5 to 1.0 depending on bacterial strain). The MIC was defined as the lowest concentration of compound that prevented bacterial growth after incubating 16 to 18 hours at 37° C. (MIC values were supported by spectrophotometric readings at OD600). DMSO served as our vehicle and negative control in each microdilution MIC assay. DMSO was serially diluted with a top concentration of 1% v/v.
as §1, with “for each compound was” for “for each tested compound was”, “Standards Institute (CLSI).^6 In a” for “Standards Institute (CLSI). In a”, “concentration of test compound that” for “concentration of compound that”, “37° C. The concentration range tested for each compound during this study was 0.10 to 100 μM. DMSO served” for “37° C. (MIC values were supported by spectrophotometric readings at OD600). DMSO served”, “1% v/v. All MIC values were obtained from a minimum of three independent experiments.” for “1% v/v.”

[2] = system: MRSA BAA-1707 biofilms; experiment: Calgary Biofilm Device assay (MBC/MBEC), MRSA BAA-1707; assay type: cell-based, Staphylococcus aureus; details: Table 2A; CBD assay
Protocol: (§2) The lid of the Calgary device was then removed, washed and transferred to another 96-well plate containing 2-fold serial dilutions of the test compounds (the “challenge plate”). The total volume of media with compound in each well in the challenge plate is 150 μL. […] The lid was then removed from the challenge plate and MBC/MBEC values were determined using different final assays. […] The MBC values were determined as the concentration giving a lack of visible bacterial growth (i.e., turbidity). […] In select experiments, pegs from the Calgary device were removed from lead biofilm eradicators after final incubation, sonicated for 30 minutes in PBS and plated out to determine biofilm cell killing of lead biofilm-eradicating agents (i.e., colony forming unit per milliliter, CFU/mL).
(§3) Using a Calgary Biofilm Device, bacterial biofilms are established on pegs suspended to the bottom of a 96-well plate lid. Following biofilm establishment on lid pegs, lids are then transferred to new 96-well plates containing serial dilutions of test compound and allowed to incubate. After compound treatment, 96-well plate lids with pegs are once again transferred to 96-well plates containing fresh media. During this final phase of the assay, viable biofilms will grow and disperse planktonic cells into the media where they will grow and give a turbid well result. Conversely, wells that have no growth are a result of pegs that had eradicated bacterial biofilms. The lowest concentration at which no turbidity is observed is the minimum biofilm eradication concentration (MBEC). Using the Calgary Biofilm Device, both minimum biofilm eradication concentrations and minimum bactericidal concentrations (MBC) for planktonic bacterial can be determined using one assay from a single bacterial culture (FIG. 3A).

[3] = system: methicillin-resistant Staphylococcus epidermidis (MRSE strain ATCC 35984); experiment: MIC broth microdilution, MRSE 35984; assay type: cell-based; details: for MIC S. epidermidis MRSE 35984: Table 1A; for MIC MRSE 35984: Table 4
Protocol: as §1
as §1, with “for each compound was” for “for each tested compound was”, “Standards Institute (CLSI).^6 In a” for “Standards Institute (CLSI). In a”, “concentration of test compound that” for “concentration of compound that”, “37° C. The concentration range tested for each compound during this study was 0.10 to 100 μM. DMSO served” for “37° C. (MIC values were supported by spectrophotometric readings at OD600). DMSO served”, “1% v/v. All MIC values were obtained from a minimum of three independent experiments.” for “1% v/v.”

[4] = system: human red blood cells (hRBC); experiment: Hemolysis of red blood cells; assay type: cell-based
Protocol: The washing was repeated three times with the buffer. In a 96-well plate, test compounds were added to the buffer from DMSO stocks. […] The plate was then incubated for 1 hour at 37° C. After incubation, the plate was centrifuged for 5 minutes at 3,500 rpm. Then 80 μL of the supernatant was transferred to another 96-well plate and the optical density (OD) was read at 405 nm. DMSO served as our negative control (0% hemolysis) while Triton X served as our positive control (100% hemolysis). […] All reported data correspond to three independent experiments. Ten-point dose-response curves were generated in 96-well plates to determine 50% hemolysis (HC50 values) of red blood cells.
The washing was repeated three times with the buffer. In 96-well plate, the test compounds were added to the buffer. Then 50 μL of 2% of hRBCs in the buffer were added to the test plate to make the final concentrations ranging from 0.2 to 200 μM of each test compound. The plate was then incubated for 1 hour at 37° C. After incubation, the plate was centrifuged for 5 minutes at 3500 rpm and then 80 μL of the supernatant was transferred to another 96-well plate and the Optical Density (OD) was read at 405 nm. DMSO served as our negative control (0% haemolysis) and Triton X served as our positive control (100% haemolysis). The HC50 (concentration of test compound required to lyse red blood cells by 50%) was calculated by plotting the dose-response curve (not shown) with Graphpad Prism 6.0. All data were obtained from three independent haemolysis experiments.

[5] = system: vancomycin-resistant Enterococcus faecium (VRE strain ATCC 700221); experiment: MIC broth microdilution, VRE 700221; assay type: cell-based; details: for MIC E. faecium VRE 700221: Table 1A; for MIC VRE 700221: Table 4
Protocol: as §1
as §1, with “for each compound was” for “for each tested compound was”, “Standards Institute (CLSI).^6 In a” for “Standards Institute (CLSI). In a”, “concentration of test compound that” for “concentration of compound that”, “37° C. The concentration range tested for each compound during this study was 0.10 to 100 μM. DMSO served” for “37° C. (MIC values were supported by spectrophotometric readings at OD600). DMSO served”, “1% v/v. All MIC values were obtained from a minimum of three independent experiments.” for “1% v/v.”

[6] = system: methicillin-resistant Staphylococcus aureus MRSA-2 (clinical isolate); experiment: MIC broth microdilution, MRSA-2; assay type: cell-based
Protocol: as §1
as §1, with “for each compound was” for “for each tested compound was”, “Standards Institute (CLSI).^6 In a” for “Standards Institute (CLSI). In a”, “concentration of test compound that” for “concentration of compound that”, “37° C. The concentration range tested for each compound during this study was 0.10 to 100 μM. DMSO served” for “37° C. (MIC values were supported by spectrophotometric readings at OD600). DMSO served”, “1% v/v. All MIC values were obtained from a minimum of three independent experiments.” for “1% v/v.”

[7] = system: Pseudomonas aeruginosa (PAO1); experiment: MIC broth microdilution, PAO1; assay type: cell-based
Protocol: as §1
as §1, with “for each compound was” for “for each tested compound was”, “Standards Institute (CLSI).^6 In a” for “Standards Institute (CLSI). In a”, “concentration of test compound that” for “concentration of compound that”, “37° C. The concentration range tested for each compound during this study was 0.10 to 100 μM. DMSO served” for “37° C. (MIC values were supported by spectrophotometric readings at OD600). DMSO served”, “1% v/v. All MIC values were obtained from a minimum of three independent experiments.” for “1% v/v.”

[8] = system: MRSA-2 biofilms; experiment: Calgary Biofilm Device assay (MBC/MBEC), MRSA-2; assay type: cell-based, Staphylococcus aureus; details: Table 2A; CBD assay
Protocol: as §2, §3

[9] = system: VRE ATCC 700221 biofilms; experiment: Calgary Biofilm Device assay (MBC/MBEC), VRE 700221; assay type: cell-based, Enterococcus faecium; details: Table 2A; CBD assay
Protocol: as §2, §3

[10] = system: MRSE ATCC 35984 biofilms; experiment: Calgary Biofilm Device assay (MBC/MBEC), MRSE 35984; assay type: cell-based, Staphylococcus epidermidis; details: Table 2A; CBD assay
Protocol: as §2, §3

[11] = system: SA-156 (clinical isolate); experiment: MIC broth microdilution, SA-156; assay type: cell-based, Staphylococcus aureus
Protocol: as §1, with “The MIC was defined as the lowest concentration of compound that prevented bacterial growth after incubating 16 to 18 hours at 37° C.” left out
(§4) Each well was inoculated with ˜10^5 bacterial cells at the initial time of incubation, prepared from a fresh log phase culture (OD600 of 0.5 to 1.0 depending on bacterial strain). […] The concentration range tested for each compound during this study was 0.10 to 100 μM. DMSO served as our vehicle and negative control in each microdilution MIC assay. DMSO was serially diluted with a top concentration of 1% v/v. All MIC values were obtained from a minimum of three independent experiments.

[12] = system: MRSA BAA-1707; experiment: MIC broth microdilution, MRSA BAA-1707; assay type: cell-based, Staphylococcus aureus; details: for MIC: read-out: MIC MRSA BAA-1707
Protocol: as §1, with “The MIC was defined as the lowest concentration of compound that prevented bacterial growth after incubating 16 to 18 hours at 37° C.” left out
as §4

[13] = system: methicillin-sensitive Staphylococcus aureus ATCC 29213; experiment: MIC broth microdilution, S. aureus 29213; assay type: cell-based
Protocol: as §1, with “The MIC was defined as the lowest concentration of compound that prevented bacterial growth after incubating 16 to 18 hours at 37° C.” left out
as §4

[14] = system: MRSA BAA-44; experiment: MIC broth microdilution, MRSA BAA-44; assay type: cell-based, Staphylococcus aureus
Protocol: as §1, with “The MIC was defined as the lowest concentration of compound that prevented bacterial growth after incubating 16 to 18 hours at 37° C.” left out
as §4

[15] = system: SA-147 (clinical isolate); experiment: MIC broth microdilution, SA-147; assay type: cell-based, Staphylococcus aureus
Protocol: as §1, with “The MIC was defined as the lowest concentration of compound that prevented bacterial growth after incubating 16 to 18 hours at 37° C.” left out
as §4

[16] = system: MRSA-1 (clinical isolate); experiment: MIC broth microdilution, MRSA-1; assay type: cell-based, Staphylococcus aureus
Protocol: as §1, with “The MIC was defined as the lowest concentration of compound that prevented bacterial growth after incubating 16 to 18 hours at 37° C.” left out
as §4

[17] = system: SA-138 (clinical isolate); experiment: MIC broth microdilution, SA-138; assay type: cell-based, Staphylococcus aureus
Protocol: as §1, with “The MIC was defined as the lowest concentration of compound that prevented bacterial growth after incubating 16 to 18 hours at 37° C.” left out
as §4

[18] = system: SA-129 (clinical isolate); experiment: MIC broth microdilution, SA-129; assay type: cell-based, Staphylococcus aureus
Protocol: as §1, with “The MIC was defined as the lowest concentration of compound that prevented bacterial growth after incubating 16 to 18 hours at 37° C.” left out
as §4

## CCCCCCCCCCCCCCCCn1cc[n+](Cc2ccc(F)cc2C(F)(F)F)c1C.[Br-] [Compound 16]
[1]
  MIC A. baumannii 1794: >100
  MIC A. bau. 1794: >100 µM
[2]
  MRSA BAA-1707 MBC: 62.5^b/ μM
  MRSA BAA-1707 MBEC: 93.8^a μM
[3]
  MIC S. epidermidis MRSE 35984: 3.13 µM
  MIC MRSE 35984: 3.13 µM
[3]; Table 2A, read-out: MRSE 35984 MIC
  MIC: 3.13 µM
[4]; Table 1A
  HC50: 10.7 µM
[4]; Table 4, concentration required to lyse 50% of red blood cells
  RBC HC50: 10.7 µM
[5]
  MIC E. faecium VRE 700221: 1.56 µM
  MIC VRE 700221: 1.56 µM
[5]; Table 2A
  VRE MIC: 1.56 µM
[6]; Table 1A
  MIC MRSA-2: 3.13 µM
[6]; Table 2A
  MRSA-2 MIC: 3.13 µM
[6]; Table 4
  MIC MRSA-2: 3.13 µM
[7]; Table 1A
  MIC PAO1: > 100 µM
[7]; Table 4
  MIC PAO1: >100 µM
[8]
  MRSA-2 MBC: 62.5/62.5 μM
  MRSA-2 MBEC: 62.5/62.5 μM
[9]
  VRE MBC: 2.0 µM⁻¹
  VRE MBEC: 3.0^a μM
[10]
  MRSE 35984 MBC: 23.5^a/ μM
  MRSE 35984 MBEC: 23.5^a μM

## CCCCCCCCCCCCCCCCn1cc[n+](Cc2cccc(OC)c2)c1C.[Br-] [Compound 17]
[11]; Table 1B
  MIC SA-156: 2.35^a μM
[11]; Table 3
  MIC SA-156: 2.35^a μM
[1]
  MIC A. baumannii 1794: >100*
  MIC A. bau. 1794: >100 µM
[3]
  MIC S. epidermidis MRSE 35984: 2.35^a
  MIC MRSE 35984: 2.35a micromolar
[5]
  MIC E. faecium VRE 700221: 1.56 µM
  MIC VRE 700221: 1.56 µM
[12]; Table 1B
  MIC: 1.56 µM
[12]; Table 3
  MIC: 1.56 µM
[12]; Table 4
  MIC MRSA 1707: 1.56 µM
[6]; Table 1A
  MIC MRSA-2: 1.56 µM
[6]; Table 1B
  MIC MRSA-2: 2.35^a μM
[6]; Table 3
  MIC MRSA-2: 2.35^a μM
[6]; Table 4
  MIC MRSA-2: 2.35a micromolar
[13]; Table 1B
  MIC: 3.13 µM
[13]; Table 3
  MIC: 3.13 µM
[14]; Table 1B
  MIC MRSA BAA-44: 2.35^a μM
[14]; Table 3
  MIC MRSA BAA-44: 2.35^a μM
[7]; Table 1A
  MIC PAO1: > 100 µM
[7]; Table 4
  MIC PAO1: >100 µM
[15]; Table 1B
  MIC SA-147: 2.35^a μM
[15]; Table 3
  MIC SA-147: 2.35^a μM
[16]; Table 1B
  MIC MRSA-1: 4.69^a μM
[16]; Table 3
  MIC MRSA-1: 4.69^a μM
[17]; Table 1B
  MIC: 3.13 µM
[17]; Table 3
  MIC: 3.13 µM
[18]; Table 1B
  MIC: 3.13 µM
[18]; Table 3
  MIC: 3.13 µM
